Assay results from patent publication US12492236B2, “Fusion proteins for the treatment of cardiometabolic diseases” (Shattuck Labs, Inc., priority 2022, dated 2025).

B1: GIP(Ag)-Fc-FGF19: GIP fused to FGF19 via a hinge-CH2-CH3 Fc domain derived from IgG1; SEQ ID NO: 88 (protein)
chain: YAEGTFISDYSIAMDKIHQQDFVNWLLAQKGKKNDWKHNITQPCPAPEAAGGPSVFLFPPKPKDTLMISRTPEVTCVVVDVSHEDPEVKFNWYVDGVEVHNAKTKPREEQYNSTYRVVSVLTVLHQDWLNGKEYKCKVSNKALPAPIEKTISKAKGQPREPQVYTLPPSRDELTKNQVSLTCLVKGFYPSDIAVEWESNGQPENNYKTTPPVLDSDGSFFLYSKLTVDKSRWQQGNVFSCSVMHEALHNHYTQKSLSLSPGKIEGRMDRDSSPLVHYGWGDPIRLRHLYTSGPHGLSSCFLRIRADGVVDCARGQSAHSLLEIKAVALRTVAIKGVHSVRYLCMGADGKMQGLLQYSEEDCAFEEEIRPDGYNVYRSEKHRLPVSLSSAKQRQLYKNRGFLPLSHFLPMLPMVPEEPEDLRGHLESDMFSSPLETDSMDPFGLVTGLEAVRSPSFEK

What was measured:
[1] = target: T1, recombinant human Activin A (Homo sapiens, UniProt P08476); experiment: MSD platform-based binding assay on plate-bound Activin A; settings: MSD signal, serial dilutions
T1 sequence (P08476 311-426): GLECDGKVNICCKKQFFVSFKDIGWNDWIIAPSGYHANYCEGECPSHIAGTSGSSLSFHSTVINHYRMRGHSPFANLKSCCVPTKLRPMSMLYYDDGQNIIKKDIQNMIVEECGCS
Experimental: (§1) The binding by a recombinant human ACVR2B-Fc fusion protein to activin A (also known as Inhibin beta A) was characterized using a Meso Scale Discovery (MSD) platform-based assay. Briefly, Activin A was coated on a plate and 8× serial dilutions of the purified recombinant human ACVR2B-Fc fusion protein were also added in a series of wells. The protein captured by the plate-bound Activin A was detected using an anti-human Fc antibody and a SULFO-TAG conjugated secondary antibody.
(§2) The binding to Activin A by the GLP-1-Fc-ACVR2B fusion protein produced using the mmRNA constructs was investigated using a Meso Scale Discovery (MSD) platform-based assay. Briefly, HEK293T cells were transfected with each mRNA construct using lipofectamine 2000, and culture supernatants were collected after 48 hours. Activin A was coated on a plate, and 3× serial dilutions of the culture supernatants were added to the plate for capture by the plate-bound Activin A. The protein captured by the plate-bound Activin A was detected using an anti-human Fc antibody and a SULFO-TAG conjugated secondary antibody. The MSD signals generated by the culture supernatants of HEK293T cells transfected with different mmRNA constructs were plotted as a line graph.

recombinant human GDF-8 = target: T2, recombinant human GDF-8 (Homo sapiens, UniProt O14793); experiment: MSD platform-based binding assay on plate-bound GDF-8; settings: MSD signal, serial dilutions
T2 sequence (O14793 267-375): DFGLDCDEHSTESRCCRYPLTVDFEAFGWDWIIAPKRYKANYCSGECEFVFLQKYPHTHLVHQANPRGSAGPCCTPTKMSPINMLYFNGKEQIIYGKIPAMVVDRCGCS
Experimental: as §1, with “GDF-8” for “activin A”, “myostatin)” for “Inhibin beta A)”, “GDF-8” for “Activin A”
as §2, with “GDF-8” for “Activin A”, “GDF-8.” for “Activin A.”

[2] = test system: HFD-fed mice (Male C57BL/6); experiment: longer-term obesity model in HFD-fed mice
Description: Briefly, mice (Male C57BL/6) were of approximately 13 weeks of age were housed 4 mice per cage. Following 2 weeks of acclimation, mice were introduced to 60% kcal HFD (Research Diets D12492). Cages were changed once, then changed once a week. Weekly body weights and non-fasted blood glucose were collected. […] The longer-term obesity model assesses a number of end points associated with obesity related type 2 diabetes (FIG. 6A).
Mice (Male C57BL/6) were of approximately 13 weeks of age were housed 4 mice per cage. Following 2 weeks of acclimatation, mice were introduced to 60% kcal HFD (Research Diets D12492). Cages were changed once, then changed once a week. Weekly body weights and non-fasted blood glucose were collected.
Mice were injected by tail vein with vehicle or the drugs on Day 0, Day 4, Day 7, Day 10, Day 14, and Day 18. Body weights were measured every 2 days. Change in body weight was calculated and plotted.
Cumulative food intake was measured between day 0 and 3, between day 4 and 7, between day 7 and day 11, and between day 11 and day 14, and represented as average daily food intake. For food consumption, remaining food was weighed on days 3, 8, and 15, and subtracted from the starting weight. This value was then normalized to the number of mice in the cage, and the number of days the mice had access to the food prior to weighing.
Blood glucose levels were measured on Days 0, 1, 10 and 15 and plotted.
On day 19 during terminal necropsy, liver and subcutaneous white adipose tissue were recovered weighed from treated animals.
To further analyze the changes in liver, histopathological analysis was conducted. Briefly, the liver tissue was stained with hematoxylin and eosin (H&E) and evaluated using standard techniques.

[3] = test system: rat insulinoma INS-1 cells; experiment: in vitro glucose-stimulated insulin secretion (GSIS) in INS-1 cells; type: cell-based; settings: 1 hour glucose, then 2 hour incubation, ELISA, FIG. 4B
Description: X is a known inducer of GSIS.

[4] = test system: HFD-fed mice (Male C57BL/6); experiment: glucose tolerance test (GTT) model in HFD-fed mice; type: in vivo
Experimental: Cages were changed once, then changed once a week.
The mice administered the above treatment by i.v. injections. The mice were then fasted for 18 hours and administered a dose of 2 g/kg glucose by i.v. injections. Blood samples were drawn by tail clip bleeding at 15, 30 and 60 minutes post dosing and cardiac bleeding was used at 2 hours after glucose injection as end-point.

GIP receptor (GIPR) = target: T3, GIP receptor (GIPR) (Rattus norvegicus, UniProt P43219); experiment: cAMP-Glo assay in rat insulinoma INS-1 cells harboring a cAMP-luciferase reporter gene; type: cell-based; settings: 1 hour glucose, then 2 hour incubation, FIG. 4A
T3 construct: endogenous in cells; host or cells: rat INS-1 insulinoma cells (with cAMP-luciferase reporter / pGloSensor-22F biosensor)
T3 sequence (P43219 19-455): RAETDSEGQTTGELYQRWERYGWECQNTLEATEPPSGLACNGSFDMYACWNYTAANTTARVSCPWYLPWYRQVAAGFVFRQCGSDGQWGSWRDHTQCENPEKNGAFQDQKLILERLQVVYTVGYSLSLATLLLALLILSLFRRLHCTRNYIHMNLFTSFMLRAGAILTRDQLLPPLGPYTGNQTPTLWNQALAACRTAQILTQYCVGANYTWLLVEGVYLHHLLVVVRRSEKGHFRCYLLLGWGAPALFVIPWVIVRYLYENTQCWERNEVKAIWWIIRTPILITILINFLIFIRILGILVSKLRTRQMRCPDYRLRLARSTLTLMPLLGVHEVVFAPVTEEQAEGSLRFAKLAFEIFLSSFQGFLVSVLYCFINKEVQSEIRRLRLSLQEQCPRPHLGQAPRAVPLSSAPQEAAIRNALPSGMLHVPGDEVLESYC
Description: Rat insulinoma INS-1 cells harboring a cAMP-luciferase reporter gene were used to study the activation of GIPR. Without wishing to be bound by theory, the activation of GIPR leads to temporary depletion of ATP because of consumption of ATP in cyclization reaction to produce cAMP as well as by phosphorylation by protein kinase A of its substrate. Without wishing to be bound by theory, the temporary depletion of ATP leads to an inhibition of luciferase activity, which needs ATP as a substrate.

[5] = target: T4, glucose-dependent insulinotropic polypeptide receptor (GIPR) (Homo sapiens, UniProt P48546); experiment: GeneBLAzer GIPR-CRE-bla HEK293T cell-based reporter assay; settings: increasing amounts, FIG. 3B
T4 construct: host or cells: HEK293T (GeneBLAzer GIPR-CRE-bla)
T4 sequence (P48546 22-466): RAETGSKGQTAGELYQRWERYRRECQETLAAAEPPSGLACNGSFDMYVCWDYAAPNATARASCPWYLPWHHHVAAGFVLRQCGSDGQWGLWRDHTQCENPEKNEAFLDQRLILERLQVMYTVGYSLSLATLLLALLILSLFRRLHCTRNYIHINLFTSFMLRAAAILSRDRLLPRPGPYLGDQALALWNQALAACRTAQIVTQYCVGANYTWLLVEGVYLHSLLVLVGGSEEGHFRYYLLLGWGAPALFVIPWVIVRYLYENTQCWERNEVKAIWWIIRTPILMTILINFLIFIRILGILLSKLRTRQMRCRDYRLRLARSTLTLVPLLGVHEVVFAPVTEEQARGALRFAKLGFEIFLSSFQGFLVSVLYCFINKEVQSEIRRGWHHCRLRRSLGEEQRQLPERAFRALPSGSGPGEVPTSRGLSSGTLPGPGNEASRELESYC
Experimental: This assay is diagrammatically represented in FIG. 3A. […] In the presence of the β-lactamase LiveBLAzer™ substrate, cells expressing β-lactamase fluoresce blue (460 nm), while those not expressing β-lactamase fluoresce green (530 nm); higher 460/530 ratio indicates the activation of GIPR.
Briefly, GeneBLAzer® GIPR-CRE-bla HEK293T cells were added to wells of black-wall assay plates. […] To each well, LiverBLAzer-FRET B/G substrate mixture was added. The plate was covered with plate sealer and incubated at room temperature for 2 hours in the dark. Fluorescence emission was measured on SpectraMax plate reader at 460 nm and 530 nm with excitation set to 409 nm. After subtraction of background, average value at 460 nm (blue color) was divided by average value at 530 nm (green color) to obtain the 460/530 ratio.

| Molecule | binding to Activin A [1] | binding to GDF-8 (recombinant human GDF-8) | blood glucose levels ([2]; Days 0, 1, 10 and 15, compared to the untreated mice, FIG. 8E) | weights of individual mice ([2]; FIG. 8B) | liver histology: hepatocellular ballooning and steatosis ([2]; H&E, FIG. 8J) | plasma insulin levels on Day 1 ([2]; between 15 and 120 minutes after treatment, one way ANOVA p<0.05, FIG. 8C left panel) | average daily food intake ([2]; compared to the untreated mice, FIG. 8D) | liver weight: livers of PBS control mice versus treated mice ([2]; day 19 necropsy, FIG. 8G) | subcutaneous white adipose tissue (sWAT) weight ([2]; day 19 necropsy, versus PBS control, FIG. 8H) | tolerability ([2]; obesity model) | plasma insulin levels on Day 15 ([2]; one way ANOVA p<0.0001, FIG. 8C right panel) | decrease in liver collagen staining relative to tirzepatide or dulaglutide ([2]; picrosirius red, FIG. 8I) | liver collagen staining (fibrosis) ([2]; picrosirius red, FIG. 8I) | change in body weight ([2]; tail vein dosing Day 0, 4, 7, 10, 14, 18, FIG. 8A) | insulin in culture supernatant (GSIS) [3] | serum insulin time course following glucose administration ([4]; FIG. 7C) | serum glucose time course following glucose administration ([4]; i.v. treatment, 18 hours fast, 2 g/kg glucose, versus PBS control (200 to about 800 mg/dl), FIG. 7A) | glucose tolerance ([4]; summary of GTT model) | inhibition of luciferase (GIPR activation, cAMP accumulation) (GIP receptor (GIPR)) | 460/530 ratio, indicative of the activation of GIPR [5] |
| --- | --- | --- | --- | --- | --- | --- | --- | --- | --- | --- | --- | --- | --- | --- | --- | --- | --- | --- | --- | --- |
| GLP-1-Fc-ACVR2B: GLP-1 fused to ACVR2B extracellular domain via IgG1 hinge-CH2-CH3 Fc domain; SEQ ID NO: 154 | binds to the human Activin A | binds to the human GDF-8 |  |  |  |  |  |  |  |  |  |  |  |  |  |  |  |  |  |  |
| GLP-1-Fc-GIP(Ag): GLP-1 fused to GIP agonist peptide (amino acids 1-42) via a hinge-CH2-CH3 Fc domain derived from IgG1; SEQ ID NO: 93 |  |  | decrease in blood glucose | induced weight loss | a decrease in hepatocellular ballooning and steatosis | rapid decrease in insulin levels | decrease in food intake | much heavier compared to the mice receiving treatments | decreased | well tolerated and no overt toxicities were noted | significant decrease in the levels of insulin | greater decrease in collagen staining | a decrease in collagen staining | progressive weight loss | stimulated insulin production to a similar, if not greater magnitude than dulaglutide or tirzepatide | rapid induction of insulin | much smaller increase in serum glucose | improved glucose tolerance |  |  |
| B1 |  |  |  |  |  |  |  |  |  |  |  |  |  |  | stimulated insulin production to a similar, if not greater magnitude than dulaglutide or tirzepatide |  |  |  | dose-dependent and saturable inhibition of luciferase with similar potency | dose-dependent and saturable increase in 460/530 ratio |
